Like-named read-outs stand apart in the source and are kept apart here.
What was measured:
TEL-SYK = TEL-SYK (Homo sapiens, UniProt P43405); experiment: Cell-based proliferation assay on BaF3 model, TEL-SYK
Procedure: (§1) Cell-based proliferation and viability assay CellTiter-Bleue cell-based survival/proliferation assay (Promega G8080) was performed on BaF3 models.
(§2) A total of 1.10^4 cells/well/50 μl were seeded in a 96-wells plate. Treatment was initiated by addition of a 2× drug solution of ½ serial dilutions ranging from 0 to 10 μM. Cells were grown for 48-72 h at 37° C. and then incubated with 10 μl/well of Promega CellTiter-Bleue reagent for 4 h at 37° C. The amount of formazan dye formed was quantified by its absorbance at 450 nm using a scanning multiwell spectrophotometer (POLARstar Omega, BMG labtech, France). A blank well without cells was used as a background control for the spectrophotometer and all assays were performed in duplicates and the experiments were repeated at least twice.

Jak1 = Jak1 (Homo sapiens (Human), UniProt P23458); experiment: HTRF kinase assay, Jak1; format: biochemical; conditions: enzymatic determination
Jak1, sequence (P23458 whole entry): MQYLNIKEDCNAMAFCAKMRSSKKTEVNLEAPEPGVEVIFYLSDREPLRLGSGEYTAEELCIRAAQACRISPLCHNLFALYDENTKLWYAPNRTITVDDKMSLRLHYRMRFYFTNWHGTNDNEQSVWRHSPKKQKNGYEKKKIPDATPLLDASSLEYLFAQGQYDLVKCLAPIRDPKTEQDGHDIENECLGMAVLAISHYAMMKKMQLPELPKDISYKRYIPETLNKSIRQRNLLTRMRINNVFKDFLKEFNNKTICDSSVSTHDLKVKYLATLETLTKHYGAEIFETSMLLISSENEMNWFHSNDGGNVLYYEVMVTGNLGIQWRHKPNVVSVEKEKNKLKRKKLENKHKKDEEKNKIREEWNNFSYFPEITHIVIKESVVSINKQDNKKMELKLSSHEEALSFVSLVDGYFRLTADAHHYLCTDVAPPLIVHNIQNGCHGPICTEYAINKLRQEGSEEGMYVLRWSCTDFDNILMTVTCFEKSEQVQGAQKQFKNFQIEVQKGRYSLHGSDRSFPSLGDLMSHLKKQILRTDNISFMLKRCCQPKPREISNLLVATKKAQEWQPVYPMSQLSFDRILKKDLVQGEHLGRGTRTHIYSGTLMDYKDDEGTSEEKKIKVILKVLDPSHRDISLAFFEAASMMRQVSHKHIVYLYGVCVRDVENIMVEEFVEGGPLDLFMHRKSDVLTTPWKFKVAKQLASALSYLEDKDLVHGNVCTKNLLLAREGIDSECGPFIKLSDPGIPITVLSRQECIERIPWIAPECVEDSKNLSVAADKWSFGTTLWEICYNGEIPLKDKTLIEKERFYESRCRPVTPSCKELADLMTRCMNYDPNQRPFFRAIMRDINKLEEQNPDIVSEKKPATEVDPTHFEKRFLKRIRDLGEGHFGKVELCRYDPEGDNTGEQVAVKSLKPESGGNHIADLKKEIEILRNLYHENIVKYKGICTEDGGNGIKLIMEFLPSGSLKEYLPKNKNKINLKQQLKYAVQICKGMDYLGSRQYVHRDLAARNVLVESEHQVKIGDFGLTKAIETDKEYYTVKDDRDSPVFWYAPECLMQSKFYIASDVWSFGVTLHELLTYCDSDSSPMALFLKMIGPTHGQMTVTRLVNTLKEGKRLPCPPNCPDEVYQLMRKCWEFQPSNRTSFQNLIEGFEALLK
Procedure: (§3) Most of the kinases tested in this study were cloned, expressed and purified in the facilities of the inventors. They were expressed either as N-terminus hexahistidine-, hexahistidine-asparagine- or GST-tagged enzymes in a baculovirus or in a Colibacille expression system. Remaining enzymes (JAKs) were purchased from Millipore or Proqinase. For each enzyme, steady state kinetic parameters were determined and validated with known inhibitors.
(§4) The analysis of the effect of compounds on kinase activity was assessed with the HTRF® KinEASE assay (Cisbio International), an immuno-assay based on the quantification of the level of phosphorylation of a biotinylated peptide substrate using anti-phospho-specific antibody labeled with Europium (Eu^3+) cryptate. This assay comprises two steps: —an enzymatic step, during which the peptide substrate, the kinase, ATP, Mg^2+ and/or Mn^2+ are incubated with varying concentration of drug (from 0 to 10 μM); —a detection step, at the end of the reaction (stopped by addition of EDTA which chelates Mg^2+), the antibody anti-phospho peptide-Eu^3+ (emission 620 nm) and streptavidin XL-665 (emission 665 nm) are added to the reaction mix. […] Results are expressed in delta fluorescence (DF) unit defined as follow DF %=[(ratio−ratio blank)/(ratio blank)]*100, where ratio=(665 nm/620 nm)*10^4. […]

Jak3 = Jak3 (Homo sapiens (Human), UniProt P52333); experiment: HTRF kinase assay, Jak3; format: biochemical; conditions: enzymatic determination
Jak3, sequence (P52333 whole entry): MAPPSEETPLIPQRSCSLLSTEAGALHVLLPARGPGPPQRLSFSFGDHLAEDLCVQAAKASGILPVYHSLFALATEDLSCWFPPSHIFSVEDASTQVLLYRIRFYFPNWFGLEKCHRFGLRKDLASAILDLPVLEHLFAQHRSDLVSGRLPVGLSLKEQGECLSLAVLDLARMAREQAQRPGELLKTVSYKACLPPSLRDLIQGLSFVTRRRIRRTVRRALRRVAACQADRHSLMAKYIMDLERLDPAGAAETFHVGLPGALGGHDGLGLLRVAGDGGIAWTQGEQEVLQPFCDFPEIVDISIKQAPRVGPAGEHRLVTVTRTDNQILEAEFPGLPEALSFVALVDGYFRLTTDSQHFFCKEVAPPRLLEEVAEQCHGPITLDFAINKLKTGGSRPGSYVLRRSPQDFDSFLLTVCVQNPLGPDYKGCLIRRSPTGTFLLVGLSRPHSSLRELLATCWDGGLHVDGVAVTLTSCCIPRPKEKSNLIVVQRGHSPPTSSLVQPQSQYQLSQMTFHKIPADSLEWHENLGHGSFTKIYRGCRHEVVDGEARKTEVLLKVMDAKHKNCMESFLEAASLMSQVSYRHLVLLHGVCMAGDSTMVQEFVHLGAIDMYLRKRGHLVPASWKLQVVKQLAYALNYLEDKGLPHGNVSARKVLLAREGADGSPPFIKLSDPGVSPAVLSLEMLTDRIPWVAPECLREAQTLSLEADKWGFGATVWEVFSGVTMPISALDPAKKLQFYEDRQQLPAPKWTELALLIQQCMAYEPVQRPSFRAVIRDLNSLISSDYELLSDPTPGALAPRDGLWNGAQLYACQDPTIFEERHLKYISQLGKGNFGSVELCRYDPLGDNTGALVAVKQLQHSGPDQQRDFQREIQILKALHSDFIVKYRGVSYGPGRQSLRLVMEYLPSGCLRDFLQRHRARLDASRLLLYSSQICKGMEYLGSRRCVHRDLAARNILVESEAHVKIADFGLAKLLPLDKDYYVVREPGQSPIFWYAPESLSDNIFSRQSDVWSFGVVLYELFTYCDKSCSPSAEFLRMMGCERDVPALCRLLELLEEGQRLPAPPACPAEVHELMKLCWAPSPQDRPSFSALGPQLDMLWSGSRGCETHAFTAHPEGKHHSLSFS
Procedure: as §3, §4

KIT wild-type = KIT wild-type (Homo sapiens (Human), UniProt P10721); experiment: Cell-based proliferation assay on BaF3 model, KIT wild-type
KIT wild-type, sequence (P10721 26-976, species assumed): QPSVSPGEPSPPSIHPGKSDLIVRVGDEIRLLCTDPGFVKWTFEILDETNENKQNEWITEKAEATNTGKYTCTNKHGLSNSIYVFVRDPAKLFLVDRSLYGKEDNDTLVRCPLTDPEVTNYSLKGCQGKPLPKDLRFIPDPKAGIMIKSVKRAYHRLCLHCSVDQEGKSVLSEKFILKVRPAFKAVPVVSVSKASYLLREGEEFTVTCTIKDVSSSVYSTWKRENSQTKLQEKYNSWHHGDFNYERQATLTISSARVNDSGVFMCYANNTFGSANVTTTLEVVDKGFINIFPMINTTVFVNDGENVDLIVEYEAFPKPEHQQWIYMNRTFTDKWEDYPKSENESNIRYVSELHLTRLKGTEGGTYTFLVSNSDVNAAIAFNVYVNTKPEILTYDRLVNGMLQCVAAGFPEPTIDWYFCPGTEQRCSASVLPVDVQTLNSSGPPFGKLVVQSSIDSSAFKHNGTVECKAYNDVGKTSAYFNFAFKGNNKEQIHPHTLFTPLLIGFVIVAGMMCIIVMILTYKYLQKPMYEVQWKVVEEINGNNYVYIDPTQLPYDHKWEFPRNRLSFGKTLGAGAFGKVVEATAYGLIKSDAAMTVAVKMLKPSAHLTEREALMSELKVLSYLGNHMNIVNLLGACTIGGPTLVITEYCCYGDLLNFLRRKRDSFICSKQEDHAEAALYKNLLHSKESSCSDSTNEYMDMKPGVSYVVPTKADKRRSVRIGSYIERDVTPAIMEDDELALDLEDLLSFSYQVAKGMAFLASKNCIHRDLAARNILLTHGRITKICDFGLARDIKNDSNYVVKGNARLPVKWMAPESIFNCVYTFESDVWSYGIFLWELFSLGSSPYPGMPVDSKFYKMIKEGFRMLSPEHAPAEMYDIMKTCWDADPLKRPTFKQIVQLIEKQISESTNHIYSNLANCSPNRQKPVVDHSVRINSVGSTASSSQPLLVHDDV
Procedure: as §1, §2

Flt3 = Flt3 (Homo sapiens (Human), UniProt P36888); experiment: Cell-based proliferation assay on BaF3 model, Flt3
Flt3, sequence (P36888 27-993, species assumed): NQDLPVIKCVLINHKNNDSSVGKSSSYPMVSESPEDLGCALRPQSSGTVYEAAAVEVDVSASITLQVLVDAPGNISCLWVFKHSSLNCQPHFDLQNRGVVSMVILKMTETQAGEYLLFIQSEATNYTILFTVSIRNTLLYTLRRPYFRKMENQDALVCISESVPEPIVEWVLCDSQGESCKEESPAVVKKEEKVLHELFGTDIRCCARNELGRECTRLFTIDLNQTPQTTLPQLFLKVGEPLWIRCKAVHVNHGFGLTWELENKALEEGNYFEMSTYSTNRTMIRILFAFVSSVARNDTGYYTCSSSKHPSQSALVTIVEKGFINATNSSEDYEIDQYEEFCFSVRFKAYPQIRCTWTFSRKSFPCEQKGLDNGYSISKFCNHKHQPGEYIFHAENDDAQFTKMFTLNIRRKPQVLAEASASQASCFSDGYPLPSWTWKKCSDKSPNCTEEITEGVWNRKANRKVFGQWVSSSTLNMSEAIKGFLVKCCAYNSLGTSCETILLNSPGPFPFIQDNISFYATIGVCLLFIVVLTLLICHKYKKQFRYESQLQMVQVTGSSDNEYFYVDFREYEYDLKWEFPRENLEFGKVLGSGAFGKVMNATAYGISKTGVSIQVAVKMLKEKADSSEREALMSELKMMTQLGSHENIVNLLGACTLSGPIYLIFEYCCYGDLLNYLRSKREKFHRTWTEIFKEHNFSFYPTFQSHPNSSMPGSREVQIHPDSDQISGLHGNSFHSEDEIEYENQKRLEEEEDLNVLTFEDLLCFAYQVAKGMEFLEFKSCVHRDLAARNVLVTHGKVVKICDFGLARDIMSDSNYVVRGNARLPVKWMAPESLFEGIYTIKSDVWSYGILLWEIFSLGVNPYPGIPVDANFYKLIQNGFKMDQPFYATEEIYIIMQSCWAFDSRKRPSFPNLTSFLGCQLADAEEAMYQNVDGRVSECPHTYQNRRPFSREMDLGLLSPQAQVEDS
Procedure: as §1, §2

c-Met = c-Met (Homo sapiens (Human), UniProt P08581); experiment: HTRF kinase assay, c-Met; format: biochemical; conditions: enzymatic determination
Procedure: as §3, §4

[1] = test system: murine model of arthritis; experiment: K/BxN serum mouse model of rheumatoid arthritis: ankle thickening and arthritis score; format: in vivo, C57Bl/6 mice
Procedure: K/B×N serum pools were prepared from arthritic mice at 8 weeks of age. The mice were pre-treated with SYK inhibitors by two per os administration for two days before induction of arthritis. Arthritis was induced in the C57Bl/6 mice (8 weeks of age) by intraperitoneal injection (7.5 μl serum per g weight) at days 0 and 2.
The treatment with SYK inhibitors was continued for 13 days. The control mice were injected with solvent before the induction of arthritis and during the course of the disease. The compounds were dissolved in a solution containing 10% of Tween 80 and 10% 1-2 propandiol. It was prepared before administration.
Ankle thickening measure, being defined as the difference in ankle thickness from the day 0, was measured using a precision calliper. Arthritis/clinical score was defined by sum of scores of each lim (0 no disease; 1 mild swelling of paw or of just of few digits; 2 clear joint inflammation; 3 severe joint inflammation) maximum score=12.
K/B×N was a murine model of spontaneous rheumatoid arthritis that mimics many of the clinical and histological features of human disease with synovitis predominantly in the distal small joints. Arthritis was induced by intraperitoneal injection of arthritis serum of K/B×N mice at days 0 and 2 as described in protocol assays above. Compound 001 was tested at 15 and 50 mg/kg/day b.i.d. and compared with Masitinib at 50 mg/kg/day b.i.d., an AB Science drug candidate for treating rheumatoid arthritis (Arthritis Res Ther., (2009), 11(3):R95). Ankle thickening and arthritis score were used to monitor the in vivo activity of the compounds.

[2] = WST-1 cell survival/proliferation assay on human cardiomyocytes; format: cell-based; conditions: Human Cardiac Myocyte
Procedure: (§5) WST-1 cell survival/proliferation assay (Roche Diagnostic ref No 1644807) was performed on both primary human adult cardiomyocytes and rat neonatal cardiac myocytes.
(§6) Human cardiomyocytes were isolated from normal human ventricle tissue of the adult heart and were able to proliferate for a number of passage. Neonatal ventricular Clonetics® Rat Cardiac Myocytes (P1-3) retained their contractile property and were electrophysiologically active in culture. 1.10^4 primary rat cells or 2-2.5 10^4 adult human cells were plated per well of a 96 wells plates. The cells were allowed to adhere to the plates for 5 days before drug treatment. Treatment was initiated by addition of a 2× drug solution of ½ serial dilutions ranging from 0 to 10 μM. Cells were grown for 48 h at 37° C. and then incubated with 10 μl/well of WST-1 reagent for 4 h at 37° C. The amount of formazan dye formed was quantified by its absorbance at 450 nm using a scanning multiwell spectrophotometer (MultiSkan MS, Thermo-LabSystems, France). A blank well without cells was used as a background control for the spectrophotometer and all assays were performed in triplicate.

[3] = WST-1 cell survival/proliferation assay on rat cardiomyocytes; format: cell-based; conditions: Rat Cardiac Myocyte
Procedure: as §5, §6

Question: With `Cc1ccnc(Nc2cccc(-c3cnc(N4CCNC(=O)C45CC5)o3)c2)n1` [Compound 001, 4-{5-[3-(4-Methyl-pyrimidin-2-ylamino)-phenyl]-oxazol-2-yl}-4,7-diaza-spiro[2.5]octan-8-one] as the compound, how does the IC50 (TEL-SYK; read-out: Kinase activity profile IC50 Tel-Syk) read?
Answer: 0.272 µM

Question: And the IC50 (TEL-SYK; read-out: TEL-SYK IC50)?
Answer: 0.27 µM

Question: What about the IC50 (Jak1) of the same compound?
Answer: 3.4 µM

Question: What about the IC50 (Jak3) of the same compound?
Answer: 20 µM

Question: What about the IC50 (KIT wild-type) of the same compound?
Answer: 10 µM

Question: What about the IC50 (Flt3) of the same compound?
Answer: 6 µM

Question: What about the IC50 (c-Met) of the same compound?
Answer: 10 µM

Question: And the “Ankle Thickening Score” value ([1]; 15 mg/kg b.i.d.)?
Answer: −17%

Question: What about the “Arthritis Score” value ([1]; 15 mg/kg b.i.d.) of the same compound?
Answer: −23%

Question: And the “Ankle Thickening Score” value ([1]; 50 mg/kg b.i.d.)?
Answer: −52% P < 0.005

Question: And the “Arthritis Score” value ([1]; 50 mg/kg b.i.d.)?
Answer: −68% P < 0.005

Question: And the “reduction of ankle thickening” value ([1]; 2×50 mg/kg/day)?
Answer: 52%

Question: And the “reduction of arthritis score” value ([1]; 2×50 mg/kg/day)?
Answer: 68%

Question: And the IC50 at 48 h ([2]; 48 h, read-out: Drug-induced cytotoxicity IC50, Hu-CM)?
Answer: 10 µM

Question: And the viability at 48 h, 1 µM ([2]; primary human adult cardiomyocytes, 1 μM, read-out: % cell viable at 1 μM, Hu-CM)?
Answer: 14%

Question: And the IC50 at 48 h ([3]; neonatal ventricular rat cardiac myocytes (Clonetics, P1-3), 48 h, read-out: Drug-induced cytotoxicity IC50, Rat-CM)?
Answer: 10 µM

Question: And the viability change vs untreated control at 48 h, 1 µM ([3]; rat neonatal cardiac myocytes, 1 μM)?
Answer: -2%
